Columns and labels:
HCT-15 = assay: MTT test, HCT-15; type: cell-based; details: Homo sapiens, 10^−5 M, 72 hours, control = 100%, mean ± SEM, read-out: average optical density (MTT), percentage relative to control
Method in brief: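 Human colorectal LoVo and HCT-15 cells in MEM/25 mM HEPES with 5% FCS were seeded, grown 24 h, then exposed 72 h at 37 °C to compounds at 10^−5 to 10^−10 M. Viability was read by MTT reduction (3 h), formazan dissolved in DMSO and read at 570/630 nm, expressed as % of solvent control.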

J82 = assay: MTT test, J82; type: cell-based; details: Homo sapiens, 10^−5 M, 72 hours, control = 100%, mean ± SEM, read-out: average optical density (MTT), percentage relative to control
Method in brief: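 Human bladder cancer cells grown in MEM/HEPES with 5% FCS were exposed for 72 h at 37 °C to compounds at 10^−5 to 10^−10 M, then to 1 mg/ml MTT for 3 h. Formazan dissolved in DMSO was read at 570 nm against 630 nm and expressed as % of solvent-control optical density.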

MXT = assay: Clonogenic test (soft agar colony growth), MXT; type: cell-based, mouse; details: 21 days, control = 100%, mean ± SEM
From the text: 1—Interaction (Stimulation or Inhibition of Proliferation) With the Generation of Clonogenic Cells (Clonogenic Test)
The test used is that described by Hamburger et al. (Science, 1977; 197, 461-463) and Salmon et al. (New England J. Med., 298, 1321-1327). A cell is considered clonogenic if it has the capacity to proliferate and to give rise to a cell colony. “Human tumor stem cells” are the cells which are the source of the neoplastic cells which constitute a given tumor. These tumor stem cells are responsible for the relapse processes which may be observed after surgical resection of primary tumors and are also responsible for the formation of metastases. In a tumor or a tumor cell line, these clonogenic stem cells differ from the other cells of the tumor or from the neoplastic cell line under consideration in that they conserve their capacity to proliferate in the absence of any solid support.
In this test, the tumor cells are cultured on a semi-solid support consisting of agar. […] In a tumor cell population, cultured on such a support, it is these clonogenic cells (associated with an unlimited number of cell divisions and whose proliferation is referred to by M. I. Dawson as “anchorage-independent [clonal] growth”) which are capable of growing. The percentage of these clonogenic cells in a tumor or a cell line ranges between 0.1% and 0.001%.
The influence of the compounds of formulae (I) and (Ia) on the growth of the cell colonies obtained by culturing, for example, the mammalian tumor lines MCF7 and MXT and the colorectal line HT-29 on the semi-liquid culture medium known as “soft agar” was measured. On such a medium, only the clonogenic cells referred to by M. I. Dawson as “anchorage-independent (clonal) cells” survive and grow. The growth of these cells in such a “non-adherent” mode bears witness to their degree of tumorigenicity. The inhibition of the growth of the size of a tumor in which a larger number of clonogenic cells has developed then becomes the evidence of reinforced cytotoxic activity.
Conversely, this test can also reveal that a compound is capable of inhibiting the generation/proliferation of clonogenic cells, thus making the tumor less able to grow and thus reducing the population of tumor cells.
The tumor cell lines studied are maintained in culture in 25 cm^2 falcon dishes. They are then trypsinized and the cells are fully dissociated from each other. The percentage of live cells is determined after staining with trypan blue. A cell suspension at a concentration of from 5·10^4 to 15·10^4 cells/ml (depending on the cell type under consideration) is prepared in a 0.3% agar solution. Next, 200 μl of this suspension are inoculated in Petri dishes 35 mm in diameter, in which are placed 3 ml of a base layer consisting of a 0.5% agar solution. The 200 μl of cell suspension are in turn covered with 1.8 ml of an upper layer consisting of a 0.3% agar solution. The dishes are then placed in an incubator at 37° C., 5% CO2 and 70% humidity until the treatment. This treatment is carried out about 1 to 2 hours after the inoculation. The test compounds are prepared at a concentration 100 times greater than the desired concentration and 50 μl of these treating solutions are placed over the upper layer of agar in the corresponding dishes. In the present study, the final concentration of the test products is 10^−5, 10^−7 and 10^−9 M. The dishes are then kept in an incubator for 21 days. On the 21st day the dishes are treated by depositing on the upper layer 100 μl of a 1 mg/ml solution of MTT (3-(4,5-dimethylthiazol-2-yl)-2,5-diphenyltetrazolinium bromide prepared with RPMI 1640 medium) for 3 h at 37° C. After this period, the cell colonies are fixed by adding 2 ml of formalin per dish. After fixing for 24 hours, the formalin is evaporated off and the number of stained cell colonies, thus consisting of metabolically active cells, and whose surface area is greater than 100 μm^2, is determined using an inverted microscope. […]

Structure (SMILES)	viability at 10 µM (HCT-15)	viability at 10 µM (J82)	average number of clones of clonogenic cells, percentage relative to control (MXT; 10^−5 M)	average number of clones of clonogenic cells, percentage relative to control (MXT; 10^−7 M)	average number of clones of clonogenic cells, percentage relative to control (MXT; 10^−9 M)
COc1ccc(-c2cc3c(OC)cc(OC)cc3[nH]c2=O)cc1 [CRL8246, 5,7-Dimethoxy-3-(4-methoxyphenyl)-1,2-dihydro-2-quinolinone]	97.2 ± 5.1%	87.6 ± 2.2%	96.7 ± 7.2%	97.7 ± 9.3%	95.2 ± 6.8%
COc1ccc(-c2cc3c(OC)cc(OC)cc3n(CCC#N)c2=O)cc1 [CRL8247, 3-[5,7-Dimethoxy-3-(4-methoxyphenyl)-2-oxo-1,2-dihydro-1-quinolinyl]propanenitrile]	87.4 ± 2.5%	55 ± 2.3%	65.7 ± 1.7%	89.6 ± 4.9%	98.4 ± 2.6%
COc1ccc(-c2cc3c(OC)cc(OC)cc3n(CCc3nnn[nH]3)c2=O)cc1 [CRL8256, 1-[2-(1H-1,2,3,4-Tetrazol-5-yl)ethyl]-5,7-dimethoxy-3-(4-methoxyphenyl)-1,2-dihydro-2-quinolinone]	73.9 ± 3.6%	77.8 ± 0.8%	53 ± 1.9%	103.8 ± 3.9%	104.5 ± 4.7%
CCN(CC)C(=O)CCn1c(=O)c(-c2ccc(OC)cc2)cc2c(OC)cc(OC)cc21 [CRL8283, N,N-Diethyl-3-[5,7-dimethoxy-3-(4-methoxy-phenyl)-2-oxo-1,2-dihydro-1-quinolinyl]propanamide]	58.2 ± 4.3%	71.6 ± 2.2%	23.7 ± 1.4%	81.2 ± 3%	91.4 ± 4%
CCN(CC)C(=O)Cn1c(=O)c(-c2ccc(OC)cc2)cc2c(OC)cc(OC)cc21 [CRL8315, N,N-Diethyl-2-[5,7-dimethoxy-3-(4-methoxy-phenyl)-2-oxo-1,2-dihydro-1-quinolinyl]acetamide]	87.9 ± 3.3%	65.9 ± 1.3%	76 ± 2.3%	103.9 ± 4.3%	102.4 ± 3.9%
COc1ccc(-c2cc3c(OC)cc(OC)cc3n(CCN(C)C)c2=O)cc1 [CRL8316, 1-[2-(Dimethylamino)ethyl]-5,7-dimethoxy-3-(4-methoxyphenyl)-1,2-dihydro-2-quinolinone]	79.8 ± 2.9%	26.9 ± 0.9%	10.8 ± 0.5%	89.1 ± 3.7%	95.3 ± 3.8%

Source: US6593342B1, “Pharmaceutical compositions comprising 2-quinolones” (Laboratoire L. Lafon, priority 1998, dated 2003)
